Assays:
MCF10A cells = assay: Uncaging efficiency of caged rhodamine with or without thioxanthone in cells; assay type: cell-based; conditions: for photoactivation / fluorescent response of irradiated cells: cells incubated with 15 uM, 405 nm exposure (1000 J/cm^2)
Experimental: FIGS. 11A and 11B illustrate images of cells incubated with a phototagging agent, with and without photosensitizer, respectively.
For example, uncaging efficiency is determined by a relative decrease in the energy or intensity of light needed to uncage the phototagging agent. For example, a wavelength at which the amount of energy or intensity is compared is more than four hundred nanometer, e.g. 405 nm as shown in the comparative example of FIGS. 11A and 11B.
The comparison is carried out by directly measuring uncaging efficiency in biological samples. The described experiment was conducted in mammalian cancer cell lines but can be generalized without loss of relevance to other mammalian cell types. The phototagging agent (caged rhodamine with thioxanthone) at 15 uM was incubated with MCF10A cells for 15 min. The caged moiety was then removed by irradiation with 405 nm CW light at 500-1500 J/cm^2. […] The uncaged rhodamine in the cells was imaged by 532 nm excitation (200 mW/0.35 cm^2).

cells = assay: Cell permeability assay: fluorescence and retention of activated dye in phototagged cells; assay type: cell-based; conditions: 15 uM for 15 min, PBS rinse, 405 nm light (1000 J/cm^2), 532 nm excitation; FIG. 10B; listed as phototagging agent
Source text: The unreacted agent was then rinsed away with PBS (phosphate buffered Saline). […] After activation, fluorescence of photoactivated uncaged rhodamine was observed and imaged by 532 nm excitation (200 mW/0.35 cm^2).

[1] = UV-Vis absorption spectrum; assay type: physicochemical
Source text: Without wishing to be bound by theory, the chemical compound and the uncaging schematically proceeds as illustrated in FIG. 12. In a preferred embodiment, the photosensitizer moiety absorbs light of a wavelength from 360 nm-420 nm while the caged fluorophore moiety is essentially insensitive to light of a wavelength >400 nm. This typically means that the absorption coefficient of the photosensitizer as a wavelength of higher than 400 nm is more than 10 times, preferably more than 40 times as high as the absorption coefficient of the caged fluorophore moiety at the same wavelength.

## COc1cc(COC(=O)N2CCCc3cc4c(cc32)Oc2cc3c(cc2C42OC(=O)c4cc(C(=O)Nc5ccc6sc7ccccc7c(=O)c6c5)ccc42)CCCN3C(=O)OCc2cc(OC)c(OC)cc2[N+](=O)[O-])c([N+](=O)[O-])cc1OC [chemical compound A]
MCF10A cells; 405 nm CW light, 15 uM agent incubated with MCF10A cells for 15 min, uncaged rhodamine imaged by 532 nm excitation
  light energy at which the caged moiety was removed (uncaging): 500-1500 J/cm^2
MCF10A cells; FIG. 10A, 405 nm
  uncaging efficiency compared to corresponding caged rhodamine without photosensitizer thioxanthone: more than ten
MCF10A cells; listed as caged rhodamine conjugated with thioxanthone
  photoactivation / fluorescent response of irradiated cells: a fluorescent response F could be measured
MCF10A cells; listed as phototagging agent
  photoactivation / fluorescent response of irradiated cells: photoactivated
cells
  time the uncaged phototagging agent stays inside cells (photoactivated fluorescence observed): seven
[1]
  absorption >400 nm: has absorption >400 nm

— patent US12687495B2, “Single cell selection and isolation” (ERASMUS UNIVERSITY MEDICAL CENTER ROTTERDAM, priority 2019, dated 2026)
